The results in this text go back to patent US8796460B2, “Compounds for inhibiting KSP kinesin activity” (Mercky Sharp & Dohme Corp., priority 2007, dated 2014).

Where only a bound is given, the exact number is not on record here.

In the first assay the test system is HCT116 colon cancer cells. Nature of the assay: KSP Cellular Assay (percent of cells staining positive for Phos-Histone H3 / Phos-MPM2). In kind it is cell-based. The following applies: Homo sapiens, HCT-116, 16 h, Table 401; HCT116 cells, 16 hours with drug; read-out: ED50 (nM) Range. How it is done:
HCT116 colon cancer cells were grown in DMEM:F12 media with 10% heat inactivated FBS at 37 degrees with 5% CO2. Cells were plated at 7,500 cells per well in PDL coated 384-well tissue culture plates. 6 hours later media was removed and new media containing drug was added. Cells were incubated with drug for 16 hours. All further steps were performed at room temperature in the dark. Cells were fixed with 25 ul/well Prefer fixation solution plus 250 nM Hoechst dye and incubated for 30 minutes. The fixation solution was removed and cells were washed with PBS. Cells were then permeabilized with 25 ul/well 0.2% Triton-X in PBS and incubated for 10 minutes. Cells were washed with PBS and then incubated with 25 ul/well PBS containing 3% FBS for 30 minutes. Cells were then stained overnight at 4 degrees with 25 ul/well antibody solution in PBS plus 3% FBS. Antibodies used were Phos-Histone H3 (ser10)-Alexa Flur 488 Conjugate and Phos-MPM2 Texas Red Conjugate. Cells were washed with PBS and then immunofluorescence images captured with HT Pathway microscope. The percent of cells staining positive was calculated and EC50 values for the compounds of the invention that were tested were determined using Excel XLfit.
EC50 Determinations: Dose-response curves were plotted from inhibition data generated each in duplicate, from 8 point serial dilutions of inhibitory compounds. Concentration of compound was plotted against enzyme activity (OD reading). To generate EC50 values, the dose-response curves were then fitted to a standard sigmoidal curve and EC50 values were derived by nonlinear regression analysis.
Turning to `N[C@@H]1CC[C@H](C(=O)N2N=C(c3cc(F)ccc3F)SC23CCOc2ccccc23)C1` (stereo partly shown) [compound 477], the EC50 was greater than 500 nM. On the same count and under the same terms, as for `N[C@@H]1CC[C@@H](C(=O)N2N=C(c3cc(F)ccc3F)SC23CCOc2ccccc23)C1` (stereo partly shown) [compound 478], the figure is greater than 500 nM. Consider `N[C@H]1CCC[C@@H](C(=O)N2N=C(c3cc(F)ccc3F)SC23CCOc2ccccc23)C1` (stereo partly shown) [compound 479], for which the EC50 was greater than 500 nM. With `N[C@H]1CC[C@H](C(=O)N2N=C(c3cc(F)ccc3F)SC23CCOc2ccccc23)CC1` (stereo partly shown) [compound 480], the EC50 was greater than 500 nM. For `N[C@H]1CC[C@@H](C(=O)N2N=C(c3cc(F)ccc3F)SC23CCOc2ccccc23)CC1` (stereo partly shown) [compound 481], the EC50 was greater than 500 nM. On the same count and under the same terms, as for `O=C(CCC1CCCNC1)N1N=C(c2cc(F)ccc2F)SC12CCOc1ccccc12` (stereo not shown) [compound 482], the figure is no more than 500 nM; as for `O=C(CC1CCCNC1)N1N=C(c2cc(F)ccc2F)SC12CCOc1ccccc12` (stereo not shown) [compound 483], 500 to 1000 nM; as for `O=C(Cc1cccnc1)N1N=C(c2cc(F)ccc2F)SC12CCOc1ccccc12` (stereo not shown) [compound 484], 500 to 1000 nM. On the same count and under the same terms, under `O=C(Cc1ccncc1)N1N=C(c2cc(F)ccc2F)SC12CCOc1ccccc12` (stereo not shown) [compound 485] stands no more than 500 nM. Still for that read-out and setting: as for `O=C(CC1CCNCC1)N1N=C(c2cc(F)ccc2F)SC12CCOc1ccccc12` (stereo not shown) [compound 486], the figure is 500 to 1000 nM; as for `NCCCCC(=O)N1N=C(c2cc(F)ccc2F)SC12CCOc1ccccc12` (stereo not shown) [compound 487], no more than 500 nM. Turning to `NC(=O)CCC(=O)N1N=C(c2cc(F)ccc2F)SC12CCOc1ccccc12` (stereo not shown) [compound 488], the EC50 was greater than 500 nM. As for `CNCCCC(=O)N1N=C(c2cc(F)ccc2F)SC12CCOc1ccccc12` (stereo not shown) [compound 489], the EC50 is no more than 500 nM. Same read-out and setting: under `CC(N)CCC(=O)N1N=C(c2cc(F)ccc2F)SC12CCOc1ccccc12` (stereo not shown) [compound 490] stands no more than 500 nM; under `O=C(CC1CNC1)N1N=C(c2cc(F)ccc2F)SC12CCOc1ccccc12` (stereo not shown) [compound 491], 500 to 1000 nM; under `O=C(CCCN1CCCC1)N1N=C(c2cc(F)ccc2F)SC12CCOc1ccccc12` (stereo not shown) [compound 492], no more than 500 nM. On the same count and under the same terms, as for `O=C1CCCN1CCCC(=O)N1N=C(c2cc(F)ccc2F)SC12CCOc1ccccc12` (stereo not shown) [compound 493], the figure is greater than 500 nM; as for `O=C(CCCN1CCCCC1)N1N=C(c2cc(F)ccc2F)SC12CCOc1ccccc12` (stereo not shown) [compound 494], no more than 500 nM. With `O=C(CCCN1CCOCC1)N1N=C(c2cc(F)ccc2F)SC12CCOc1ccccc12` (stereo not shown) [compound 495], the EC50 is greater than 500 nM. Same read-out and setting: as for `O=C(CC1CCNC1)N1N=C(c2cc(F)ccc2F)SC12CCOc1ccccc12` (stereo not shown) [compound 496], the figure is no more than 500 nM; as for `O=C(CCC1CCCCN1)N1N=C(c2cc(F)ccc2F)SC12CCOc1ccccc12` (stereo not shown) [compound 497], 500 to 1000 nM. Same read-out and setting: as for `O=C(CCC1CCNCC1)N1N=C(c2cc(F)ccc2F)SC12CCOc1ccccc12` (stereo not shown) [compound 498], the figure is no more than 500 nM; as for `N[C@H]1C[C@@H](C(=O)N2N=C(c3cc(F)ccc3F)SC23CCOc2ccccc23)C1` (stereo partly shown) [compound 499], 500 to 1000 nM. The same measure, in the same setting: as for `N[C@H]1C[C@H](C(=O)N2N=C(c3cc(F)ccc3F)SC23CCOc2ccccc23)C1` (stereo partly shown) [compound 500], the figure is greater than 500 nM.

For the compound `N[C@H]1C[C@@H](C(=O)N2N=C(c3cc(F)ccc3F)SC23CCc2ccccc23)C1` (stereo partly shown) [compound 501], the EC50 is no more than 500 nM. On the same count and under the same terms, as for `N[C@H]1C[C@H](C(=O)N2N=C(c3cc(F)ccc3F)SC23CCc2ccccc23)C1` (stereo partly shown) [compound 502], the figure is no more than 500 nM.

The assay is the same for the next values; noted with them: Homo sapiens, HCT-116, 16 h, Table 601; HCT116 cells, 16 hours with drug; read-out: EC50 (nM) Range.
For the compound `CN(C)C(=O)N1N=C(c2cc(F)ccc2F)SC12CCc1ccccc12` (stereo not shown) [compound 602], the EC50 lay in the range of 500 to 1000 nM. Same read-out and setting: under `CN(C)C(=O)N1N=C(c2cc(F)ccc2F)SC12CCCc1sccc12` (stereo not shown) [compound 603] stands greater than 1000 nM.

Staying with this assay, now noted: Homo sapiens, HCT-116, 16 h, Table 701; HCT116 cells, 16 hours with drug; read-out: EC50 (nM) Range.
Turning to `NCCN1N=C(c2cc(F)ccc2F)SC12CCOc1ccccc12` (stereo not shown) [compound 701], the EC50 was greater than 1000 nM. On the same count and under the same terms, as for `CC(C)N1N=C(c2cc(F)ccc2F)SC12CCOc1ccccc12` (stereo not shown) [compound 702], the figure is greater than 1000 nM; as for `CCN1N=C(c2cc(F)ccc2F)SC12CCOc1ccccc12` (stereo not shown) [compound 703], greater than 1000 nM. On the same count and under the same terms, under `COCCN1N=C(c2cc(F)ccc2F)SC12CCOc1ccccc12` (stereo not shown) [compound 704] stands greater than 1000 nM.

Still in this assay, the particulars now being: Homo sapiens, HCT-116, 16 h, Table 801; HCT116 cells, 16 hours with drug; read-out: EC50 (nM) Range.
Regarding `CC(=O)N1N=C(c2cc(F)ccc2F)S[C@@]12c1cc(F)ccc1OC[C@H]2CCN` [compound 801], the EC50 was no more than 500 nM. On the same count and under the same terms, as for `CC(=O)N1N=C(c2cc(F)ccc2F)S[C@]12c1cc(F)ccc1OC[C@@H]2CCN` [compound 802], the figure is greater than 1000 nM; as for `CC(=O)N1N=C(c2cc(F)ccc2F)S[C@]12c1cc(F)ccc1OC[C@H]2CCN` [compound 803], no more than 500 nM. Same read-out and setting: under `CC(=O)N1N=C(c2cc(F)ccc2F)S[C@@]12c1cc(F)ccc1OC[C@@H]2CCN` [compound 804] stands no more than 500 nM; under `CC(=O)N1N=C(c2cc(F)ccc2F)S[C@@]12c1cc(F)c(F)cc1OC[C@H]2CCN` [compound 807], no more than 500 nM; under `CC(=O)N1N=C(c2cc(F)ccc2F)S[C@]12c1cc(F)c(F)cc1OC[C@@H]2CCN` [compound 808], greater than 1000 nM.

As for `CC(=O)N1N=C(c2cc(F)ccc2F)S[C@@]12c1cccc(F)c1OC[C@H]2CCN` [compound 809], the EC50 is no more than 500 nM. Same read-out and setting: under `CC(=O)N1N=C(c2cc(F)ccc2F)S[C@]12c1cccc(F)c1OC[C@@H]2CCN` [compound 810] stands greater than 1000 nM; under `CC(=O)N1N=C(c2cc(F)ccc2F)S[C@@]12c1cc(Cl)ccc1OC[C@H]2CCN` [compound 811], no more than 500 nM. With `CC(=O)N1N=C(c2cc(F)ccc2F)S[C@]12c1cc(Cl)ccc1OC[C@@H]2CCN` [compound 812], the EC50 was greater than 1000 nM. Same read-out and setting: under `CC(=O)N1N=C(c2cc(F)ccc2F)S[C@@]12c1ccccc1OC[C@H]2CCNO` [compound 813] stands no more than 500 nM.

On to `CC(=O)N1N=C(c2cc(F)ccc2F)S[C@@]12c1ccccc1OC[C@@H]2CCN` [compound 814], for which the EC50 is no more than 500 nM. The same measure, in the same setting: as for `CC(=O)N1N=C(c2cc(F)ccc2F)S[C@@]12c1ccccc1OC[C@H]2CCN` [compound 815], the figure is no more than 500 nM; as for `CC(=O)N1N=C(c2cc(F)ccc2F)S[C@]12c1ccccc1OC[C@@H]2CCN` [compound 816], greater than 1000 nM; as for `CC(=O)N1N=C(c2cc(F)ccc2F)S[C@]12c1ccccc1OC[C@H]2CCN` [compound 817], no more than 500 nM.

The same assay, now with this note: Homo sapiens, HCT-116, 16 h, Table 1201 (Example 1201); HCT116 cells, 16 hours with drug; read-out: EC50 (nM) Range.
Turning to `CCNCC[C@@H]1COc2ccccc2[C@@]12SC(c1cc(F)ccc1F)=NN2C(C)=O` [compound 1202], the EC50 was no more than 500 nM. Same read-out and setting: as for `CC(=O)N1N=C(c2cc(F)ccc2F)S[C@@]12c1ccccc1OC[C@H]2CCNC(C)C` [compound 1203], the figure is no more than 500 nM.

The assay is the same for the next values; noted with them: Homo sapiens, HCT-116, 16 h, table of Example 901; HCT116 cells, 16 hours with drug; read-out: EC50 (nM) Range.
As to `CC(=O)N1N=C(c2cc(F)ccc2F)S[C@@]12c1ccccc1OC[C@@H]2CC#N` [compound 902], the EC50 was no more than 500 nM. Still for that read-out and setting: under `CC(=O)N1N=C(c2cc(F)ccc2F)S[C@@]12c1ccccc1OC[C@H]2CC#N` [compound 903] stands no more than 500 nM. Still for that read-out and setting: under `CC(=O)N1N=C(c2cc(F)ccc2F)S[C@]12c1ccccc1OC[C@H]2CC#N` [compound 904] stands 500 to 1000 nM. With `CC(=O)N1N=C(c2cc(F)ccc2F)S[C@]12c1ccccc1OC[C@@H]2CC#N` [compound 905], the EC50 is greater than 1000 nM. Same read-out and setting: as for `CC(=O)N1N=C(c2cc(F)ccc2F)S[C@]12c1ccccc1C[C@H]2CC#N` [compound 906], the figure is no more than 500 nM; as for `CC(=O)N1N=C(c2cc(F)ccc2F)S[C@]12c1ccccc1C[C@@H]2CC#N` [compound 907], no more than 500 nM.

The assay is the same for the next values; noted with them: Homo sapiens, HCT-116, 16 h, table of Example 1004; HCT116 cells, 16 hours with drug; read-out: EC50 (nM) Range.
With `CC(=O)N1N=C(c2cc(F)ccc2F)S[C@@]12c1ccccc1OC[C@H]2CCCN` [compound 1004], the EC50 was no more than 500 nM. Still for that read-out and setting: as for `CC(=O)N1N=C(c2cc(F)ccc2F)S[C@]12c1ccccc1OC[C@@H]2CCCN` [compound 1005], the figure is greater than 500 nM.

The same assay, now with this note: Homo sapiens, HCT-116, 16 h, table of Example 1801 (headed Table 1201); HCT116 cells, 16 hours with drug; read-out: EC50 (nM) Range.
Consider `CC(=O)N1N=C(c2ccccc2F)S[C@@]12c1ccccc1OC[C@H]2CCN` [compound 1802], for which the EC50 is no more than 500 nM. Consider `CC(=O)N1N=C(c2cc(Cl)ccc2F)S[C@@]12c1ccccc1OC[C@H]2CCN` [compound 1803], for which the EC50 was no more than 500 nM. On the same count and under the same terms, under `CC(=O)N1N=C(c2ccccc2F)S[C@]12c1ccccc1OC[C@@H]2CCN` [compound 1804] stands greater than 1000 nM.

For the compound `CC(=O)N1N=C(c2cc(Cl)ccc2F)S[C@]12c1ccccc1OC[C@@H]2CCN` [compound 1805], the EC50 was greater than 1000 nM.
